Source: PMC10755736, “Modulating Liquid–Liquid Phase Separation of Nck Adaptor Protein against Enteropathogenic Escherichia coli Infection” (ACS Central Science, 2023)
Non-standard residues stand in square brackets, D forms with d. Residues, ends and D or L forms follow the SMILES beside them. *: point of attachment. Biotin = O=C1N[C@H]2[C@H](CS[C@H]2CCCCC(=O)*)N1; Benzoyl(4-SO2F) = O=C(c1ccc(S(=O)(=O)F)cc1)*; pY = N[C@@H](Cc1ccc(OP(=O)(O)O)cc1)C(=O)O; Dap = NC[C@H](N)C(=O)O

Experiments:
[1] = target: T1, Nck/N-WASP/3pY (Homo sapiens, UniProt P16333); assay: Turbidity assay of Nck/N-WASP/3pY solution; format: biochemical; details: Nck droplets; text cites Figures S12 and S13
T1 construct: GST (followed by PreScission/HRV 3C site) (N, cleaved yes); made in house; host or cells: E. coli BL21(DE3)
Protocol: Next, we explored the intervention of Nck/N-WASP/3pY LLPS using pY peptides (Figure 3a). Three pY-containing peptides extracted from different Tir sequences were synthesized, namely, peptides Y474, Y751, and Y147 (Figure 3b).
Figure 3 pY peptides disrupt Nck/N-WASP/3pY LLPS. (a) Sequences of synthetic pY peptides. […] Nck: 20 μM; N-WASP: 10 μM; 3pY: 10 μM. Scale bars, 20 μm. (c) Peptide Y474 rapidly decreases the turbidity of the Nck/N-WASP/3pY solution in around 20 min. Nck: 20 μM, N-WASP: 10 μM, 3pY: 10 μM. […] Nck: 20 μM, N-WASP: 10 μM, 3pY: 10 μM.
(Cytiva, Hong Kong) using a gradient from 100 to 500 mM NaCl and Superdex 75 10/300 GL column (Cytiva, Hong Kong) in 25 mM HEPES, 150 mM NaCl, and 2 mM βME at pH 7.5.
Proteins were buffer-exchanged through a Hi-trap desalting column (Cytiva, Hong Kong) to the reaction buffer. For Cy5 labeling, the buffer was 0.1 M sodium bicarbonate buffer at pH 8.3. For FITC labeling, the buffer was 50 mM sodium borate at pH 8.5. […]
Fluorescence Recovery after Photobleaching (FRAP) Assay
Fluorescence recovery in vitro was conducted with a DMi8 microscope (Leica, Germany). […]
The fluorescence intensity was quantified and normalized by ImageJ.
Fluorescence recovery after photobleaching experiments inside mammalian cells was conducted with a two-photon imaging system using a custom-built upright microscope, based on a previously used imaging setup. […]

[2] = test system: Nck-SH2; assay: Covalent reaction of p1 with wild-type Nck-SH2; format: binding; details: cell lysate in vitro and in the cytosol
Protocol: Figure 5 Peptide p1 reacts with Lys 331. (a) MS/MS analysis of the conjugated site between p1 peptide and Nck-SH2 at Lys331. The corresponding mass data are shown in Figure S6 in the Supporting Information. […] Purified recombinant proteins were incubated with peptides in PBS buffer at 37 °C for 1 min (left) or 10 min (right). Molecular weight markers are shown in the middle. Red arrows indicate the covalent peptide–protein complex. […]
ether and purified by reverse-phase HPLC on a C18 column using acetonitrile/H2O (with 0.1% TFA) gradient on a reversed-phase C18 column, confirmed by MALDI-TOF MS analysis (Bruker, USA).
Pure peptides were lyophilized.
Crosslinking of Peptides with Nck in vitro
Purified peptides were incubated with the recombinantly expressed Nck protein (10 μM) in PBS buffer at 37 °C. After incubation, 5´ loading buffer was added into the solution and heated at 100 °C for 10 min. […]
The reaction mixture of Nck and p1 were digested with trypsin. Digested peptides were analyzed with an in-line EASY-spray source and nano-LC UltiMate 3000 high-performance liquid chromatography system (Thermo Fisher, USA) interfaced with an Elite mass spectrometer (Thermo Fisher, USA). The eluted peptides were detected by the Elite mass spectrometer, which was operated in data-dependent mode with one full MS scan at R = 60,000 (m/z = 200) mass, followed by MS/MS scans. […]

[3] = test system: Nck in Caco-2 cells; assay: In cell reaction of p1 with endogenous Nck (Western blot); format: cell-based; details: L17E and p1 (printed 40 mM and 10 mM) overnight; anti-Nck Western blot
Protocol: Caco-2 cells were seeded in a 24-well plate at a density of 1×10^4 cells for 24 h and pretreated with peptide complexes for 2 h. After washing with DMEM, cells were infected with EPEC at selected MOI values for 3 h at 37 ℃. Cells were then treated with gentamicin ([…]) for 2 h and lysed with 1% Triton X-100 for 15 min. The lysates were diluted 100 or 1000 folds to be spread on LB agar plates […]
Immunofluorescence Confocal Microscopy
Infected cells were fixed with 4% PFA and treated with 0.1% Triton X-100 for 10 min. And then the samples were blocked with 3% BSA for 1 h, incubated with anti-Tir antibody (Abbexa, C ambridge, UK) at 1:200 at 4℃ over night and followed by incubation with Alexa Fluo 488 goat anti -rabbit IgG secondary antibody at room temperature for 2 h. Cells were treated with DAPI (Invitrogen) for 10 min, then stained with phalloidin (Alexa Fluor 594 -conjugated phalloidin, Invitrogen) for 1 h and imaged by a confocal fluorescent microscope (SP8, Leica).
Caco -2 cells were treated with peptides overnight and lysed via RIPA buffer containing protease inhibitors for 15 min at 4℃. […]
SPSS 23.0 statistical software was used to process experimental data. The differences between mean ± SEM of three independent experiments were assessed by Student's t -test. […]

Structure (SMILES): CC[C@H](C)[C@H](NC(=O)[C@H](Cc1c[nH]cn1)NC(=O)[C@H](CCC(=O)O)NC(=O)[C@H](CCC(=O)O)NC(=O)CCCC[C@@H]1SC[C@@H]2NC(=O)N[C@@H]21)C(=O)N[C@@H](Cc1ccc(OP(=O)(O)O)cc1)C(=O)N[C@@H](CNC(=O)c1ccc(S(=O)(=O)F)cc1)C(=O)N[C@@H](CCC(=O)O)C(=O)N[C@H](C(=O)N[C@@H](C)C(=O)N[C@@H](C)C(=O)N[C@@H](CC(=O)O)C(N)=O)C(C)C [p1] (Biotin-EEHI[pY][Dap](Benzoyl(4-SO2F))EVAAD-NH2; N-terminus and C-terminus assumed)
- reduction of solution turbidity, p1 and Y474 compared [1]: reduce the turbidity of the solution
- reactivity with Nck-SH2 [2]: high reactivity with Nck-SH2
- reaction with endogenous Nck in cytosol [3]: reacted with the endogenous Nck in the cytosol of Caco-2 cells
